Experimental data taken from patent US5948786A, “Piperidinylpyrimidine derivatives” (Sumitomo Pharmaceuticals Company, Limited, priority 1996, dated 1999).

The compounds below were run on TNF α production from mouse macrophages (assay: Inhibitory activity of compound on TNF α Production from mouse macrophages (LPS-induced PEC's)). Details: Macrophage, LPS 10 μg/ml, 18 hours.
Type: cell-based
Method: BALB/c mice (female, 5-7 weeks old, Charles River Japan, Tokyo, Japan) were injected i.p. with 1 ml of 2.4% thioglycollate broth. After 4 days, the mice were sacrificed. Peritoneal exudated cells (PEC's) were collected from the peritoneal cavity by washing with minimum essential medium (MEM, Handai biseibutubyou kenkyukai, Osaka, Japan) containing 5 U/ml heparin, 1% fetal bovine serum (FBS, Filtron, Victoria, Australia) and antibiotics. The cells were washed two times with MEM, suspended with MEM containing 10% FBS (complete MEM, cMEM) and seeded into 96-well culture plates (Costar, Cambridge, Mass., USA) at 2×10^5 cells/well. The cells were incubated for 1 hour at 37° C. in a humidified 5% CO2 incubator and washed two times to remove non-adherent cells.
(§1) TNF α was induced by 10 μg/ml of LPS (E. coli O111B4, DIFCO, Detroit, Mich., USA) the cells were cultured for 18 hours at 37° C. A compound of the present invention was dissolved in DMSO and added to the culture simultaneously with LPS. The final DMSO concentration was below 0.1%. The TNF α concentration in supernatant and recombinant mouse TNF α standard (rm-TNF α, Genzyme, Mass., USA) were incubated overnight at 4° C. in a 96-well plate coated with anti-mouse TNF α monoclonal antibody (PharMingen, San Diego, Calif., USA) that previously had been blocked with 10% FBS. Each well of the plate first was incubated at room temperature with biotinylated anti-mouse TNF α polyclonal antibodies (PharMingen) for 45 minutes, then with peroxidase-conjugated streptavidin (Kirkegaard & Perry Laboratories Inc., Gaitherburg, Md., USA) for 30 minutes. After each incubation, the plate was washed 4 to 8 times with PBS containing 0.2% Tween 20. TMB (Kirkegaard & Perry Laboratories Inc.) was the peroxidase substrate used and, the absorbance of each well was quantified at 450 nm by a microplatereader (Molecular Devices Corp., CA, USA). TNF α levels in the supernatant were quantified with rm-TNF α as the standard.

**Q.** Which inhibition at 30 µM does the source give for `COc1ccc(Cc2cc(C3CCN(C(=O)Cc4ccc(Cl)cc4Cl)CC3)nc(N)n2)cc1` [Example 239] here?
**A.** 99%

**Q.** `COc1ccc(Cc2cc(C3CCN(C(=O)Cc4ccc(Cl)c(Cl)c4)CC3)nc(N)n2)cc1` [Example 241] was tested. Which inhibition at 30 µM did it give?
**A.** 95%

**Q.** `COc1ccc(Cc2cc(C3CCN(C(=O)Cc4ccc([N+](=O)[O-])cc4[N+](=O)[O-])CC3)nc(N)n2)cc1` [Example 242] was tested. Which inhibition at 30 µM did it give?
**A.** 31%

**Q.** How did the inhibition at 30 µM turn out when `COc1ccc(Cc2cc(C3CCN(C(=O)Cc4ccc5c(c4)OCO5)CC3)nc(N)n2)cc1` [Example 243] was run?
**A.** 93%

**Q.** For `COc1ccc(Cc2cc(C3CCN(C(=O)Cc4c(Cl)ccc(Cl)c4Cl)CC3)nc(N)n2)cc1` [Example 244], which inhibition at 30 µM is on record?
**A.** 98%

**Q.** `CCCCCCCC(=O)N1CCC(c2cc(Cc3ccc(Cl)cc3)nc(N)n2)CC1` [Example 247] was tested. Which inhibition at 30 µM did it give?
**A.** 21%

**Q.** Which inhibition at 30 µM does the source give for `CCCCCCCCC(=O)N1CCC(c2cc(Cc3ccc(Cl)cc3)nc(N)n2)CC1` [Example 248] here?
**A.** -6%

**Q.** Which inhibition at 30 µM does the source give for `Nc1nc(Cc2ccc(Cl)cc2)cc(C2CCN(C(=O)c3ccc4c(c3)OCO4)CC2)n1` [Example 250] here?
**A.** 91%

**Q.** How did the inhibition at 30 µM turn out when `COc1ccc(CC(=O)N2CCC(c3cc(Cc4ccc(Cl)cc4)nc(N)n3)CC2)cc1` [Example 251] was run?
**A.** 98%

**Q.** For `Nc1nc(Cc2ccc(Cl)cc2)cc(C2CCN(C(=O)Cc3ccc(Cl)cc3)CC2)n1` [Example 252], which inhibition at 30 µM is on record?
**A.** 96%

**Q.** How did the inhibition at 30 µM turn out when `CCCCCCCC(=O)N1CCC(c2cc(CCc3ccccc3)nc(N)n2)CC1` [Example 255] was run?
**A.** 47%

**Q.** `CCCCCCCCC(=O)N1CCC(c2cc(CCc3ccccc3)nc(N)n2)CC1` [Example 256] was tested. Which inhibition at 30 µM did it give?
**A.** 75%

**Q.** `CCCCCCCCCC(=O)N1CCC(c2cc(CCc3ccccc3)nc(N)n2)CC1` [Example 257] was tested. Which inhibition at 30 µM did it give?
**A.** 90%

**Q.** How did the inhibition at 30 µM turn out when `COc1ccc(CC(=O)N2CCC(c3cc(CCc4ccccc4)nc(N)n3)CC2)cc1` [Example 261] was run?
**A.** 42%

**Q.** With `Nc1nc(CCc2ccccc2)cc(C2CCN(C(=O)Cc3ccc(Cl)cc3)CC2)n1` [Example 262] as the compound, how does the inhibition at 30 µM read?
**A.** 43%

**Q.** How did the inhibition at 30 µM turn out when `Nc1nc(CCc2ccccc2)cc(C2CCN(C(=O)Cc3ccc([N+](=O)[O-])cc3)CC2)n1` [Example 263] was run?
**A.** 37%

**Q.** For `Nc1nc(C2CCN(C(=O)OCc3ccccc3)CC2)c2ccccc2n1` [Example 269], which inhibition at 30 µM is on record?
**A.** 77%

**Q.** How did the inhibition at 30 µM turn out when `Nc1nc(C2CCN(S(=O)(=O)Cc3ccccc3)CC2)c2ccccc2n1` [Example 272] was run?
**A.** 5%

**Q.** How did the inhibition at 30 µM turn out when `COc1ccc(Cc2cc(C3CCN(C(=O)OCc4ccccc4)CC3)nc(N)n2)cc1` [Example 274] was run?
**A.** 49%

**Q.** How did the inhibition at 30 µM turn out when `COc1ccc(Cc2cc(C3CCN(S(=O)(=O)Cc4ccccc4)CC3)nc(N)n2)cc1` [Example 277] was run?
**A.** 32%

**Q.** Which inhibition at 30 µM does the source give for `Nc1nc(C2CCN(C(=O)NCc3ccccc3)CC2)c2ccccc2n1` [Example 280, 2-amino-4-(1-benzyl-carbamoyl-4-piperidinyl)quinazoline] here?
**A.** 34%

**Q.** With `COc1ccc(Cc2cc(C3CCN(C(=O)NCc4ccccc4)CC3)nc(N)n2)cc1` [Example 283, 2-amino-4-(1-benzylcarbamoyl-4-piperidinyl)-6-(4-methoxyphenylmethyl)pyrimidine] as the compound, how does the inhibition at 30 µM read?
**A.** 81%

**Q.** How did the inhibition at 30 µM turn out when `NCCCCCCC(=O)N1CCC(c2nc(N)nc3ccccc23)CC1` [Example 284, 2-amino-4-[1-(7-aminoheptanoyl)-4-piperidinyl]quinazoline] was run?
**A.** 3%

**Q.** How did the inhibition at 30 µM turn out when `NCCCCCCCC(=O)N1CCC(c2nc(N)nc3ccccc23)CC1` [Example 285, 2-amino-4-[1-(8-aminooctanoyl)-4-piperidinyl]quinazoline] was run?
**A.** 27%

**Q.** How did the inhibition at 30 µM turn out when `NCCCCCCCCCCC(=O)N1CCC(c2nc(N)nc3ccccc23)CC1` [Example 286, 2-amino-4-[1-(11-aminoundecanoyl)-4-piperidinyl]quinazoline] was run?
**A.** 67%

**Q.** For `COc1ccc(Cc2cc(C3CCN(C(=O)CCN)CC3)nc(N)n2)cc1` [Example 287, 2-amino-4-[1-(3-aminopropanoyl)-4-piperidinyl]-6-(4-methoxyphenylmethyl)pyrimidine], which inhibition at 30 µM is on record?
**A.** 40%

These compounds were tested on Tat induced HIV-1 LTR-CAT gene expression in Jurkat cells (assay: Tat induced HIV-1 LTR-CAT gene expression in Jurkat cells). Details: Homo sapiens, Tat (pSV-Tat), 24 hours.
Type: cell-based
Method: p469, HIV-1 LTR driven CAT and pSV-Tat, Tat-expression vector were kindly provided from Dr. Gary J. Nabel (Nature Vol. 326, 711(1987))
RPMI 1640 medium (Life Technologies, Grand Island, N.Y., USA) was supplemented with heat-inactivated fetal calf serum (FBS; Sigma, St. Louis, Mo., USA).
Human T lymphoma cell line, Jurkat, was cultured in medium described above Transfection;
Introduction of plasmid DNA into cells was carried out according to the method described in Chiang, J. Li et al., Proc. Natl. Acad. Sci. Vol. 92, 5461-5464 (1995). Briefly, the cells were suspended with the medium at 2×10^7 cells/ml followed by addition 1 μg of p469 and 0.5 μg of DEAE-dextran (Sigma). In some experiments the cells were co-transfected with 0.5 μg of pSV-Tat. After 10 minutes incubation at room temperature with occasionally mixing, the cells were pulsed with electroporation apparatus at 140 V. The cells were re-suspended with the fresh medium and cultured for 20 hours at 37° C.
A compound tested was dissolved in dimethylsulfoxide at 100 mM as a stock solution. The aliquots of the stock solution were kept frozen at -20° C. Jurkat cells transfected with p469 were treated with 10 ng/ml of phorbol 12-myristate 13-acetate (PMA; Sigma) to activate HIV-1-LTR directed CAT gene transcription in the presence of the compound. In the case of cells transfected with p469 and pSV-Tat, they were simply treated with the compound. After the cells were cultured for an additional 24 hours at 37° C., the cells were washed 2 times with phosphate-buffered saline and lysed in 50 mM Tris-HCl plus 15% glycerol with repeated cycles of freeze and thaw. The cell lysates were clarified by centrifugation followed by determination of protein concentration by Bradford method (Bio-Rad, Hercules, Calif., USA). Measurement of a CAT activity in cell lysates was carried out according to a similar method described in Fridovich-Keil J. L. et. al., Cell Growth and Differentiation, Vol. 2, 67-76(1991). Equal amount (30 μg of protein) of cell lysates was incubated at 37° C. with 35 μg of acetyl co-enzyme A (GIBCO/BRL, Grand Island, Mo., USA) and 0.1 μCi of 14C-chloramphenicol (Dupont, NEN Boston, Mass., USA) in […] solution for 2 hours. Acetyl-14C-chloramphenicol was extracted with 9 volumes of ethyl acetate and fractionated on a TLC gel with 1:19 (v/v) in methanol/chloroform. The CAT activity was detected by autoradiography and quantified by an Imaging Densitometer (model GS-700; Bio-Rad).

**Q.** For `Nc1nc(Cc2ccc(Br)cc2)cc(C2CCN(C(=O)c3ccc4c(c3)OCO4)CC2)n1` [Example 303, 2-Amino-4-(4-bromophenylmethyl)-6-[1-(3,4-methylenedioxybenzoyl)-4-piperidinyl]pyrimidine], which inhibition at 5 µM is on record?
**A.** 65%

**Q.** How did the inhibition at 5 µM turn out when `Nc1nc(Cc2ccccc2)cc(C2CCN(C(=O)c3ccc4c(c3)OCO4)CC2)n1` [Example 304] was run?
**A.** 44%

**Q.** With `COc1cccc(Cc2cc(C3CCN(C(=O)c4ccc5c(c4)OCO5)CC3)nc(N)n2)c1` [Example 305] as the compound, how does the inhibition at 5 µM read?
**A.** 72%

**Q.** With `COc1cc(Cc2cc(C3CCN(C(=O)c4ccc5c(c4)OCO5)CC3)nc(N)n2)cc(OC)c1` [Example 308] as the compound, how does the inhibition at 5 µM read?
**A.** 70%

These compounds were tested on TNF α production from human peripheral blood mononuclear cells (PBMC) (assay: Inhibitory activity of compound on TNF α production from PBMC). Details: not given.
Type: cell-based
Method: as §1, with “The final DMSO concentration was below 0.1%. The TNF α concentration in supernatant and recombinant mouse TNF α standard (rm-TNF α, Genzyme, Mass., USA) were incubated overnight at 4° C. in a 96-well plate coated with anti-mouse TNF α monoclonal antibody (PharMingen, San Diego, Calif., USA) that previously had been blocked with 10% FBS.” left out, “standard. Inhibitory activity of TNF α production was also quantified using human peripheral blood mononuclear cells(PBMC) instead of PEC's. Results are shown in table 9, 10, 11, 12, 13, 14, 15, 16, 17, 18, 19 and 20.” for “standard.”

**Q.** Which inhibition at 30 µM does the source give for `COc1ccc(Cc2cc(C3CCN(C(=O)c4ccc5[nH]cnc5c4)CC3)nc(N)n2)cc1` [Example 289] here?
**A.** 93%

**Q.** `COc1ccc(Cc2cc(C3CCN(C(=O)c4ccc5[nH]ccc5c4)CC3)nc(N)n2)cc1` [Example 290] was tested. Which inhibition at 30 µM did it give?
**A.** 101%

**Q.** `COc1ccc(Cc2cc(C3CCN(C(=O)c4ccc5c(c4)OCCO5)CC3)nc(N)n2)cc1` [Example 291] was tested. Which inhibition at 30 µM did it give?
**A.** 88%

**Q.** How did the inhibition at 30 µM turn out when `COc1ccc(Cc2cc(C3CCN(C(=O)c4ccc(F)c(F)c4)CC3)nc(N)n2)cc1` [Example 292] was run?
**A.** 66%

**Q.** `COc1ccc(Cc2cc(C3CCN(C(=O)c4ccc(O)c(OC)c4)CC3)nc(N)n2)cc1` [Example 300] was tested. Which inhibition at 30 µM did it give?
**A.** 80%

**Q.** `COc1ccc(Cc2cc(C3CCN(C(=O)c4ccc(OC)c(O)c4)CC3)nc(N)n2)cc1` [Example 301] was tested. Which inhibition at 30 µM did it give?
**A.** 88%

**Q.** `COc1ccc(Cc2cc(C3CCN(C(=O)c4ccc(O)c(O)c4)CC3)nc(N)n2)cc1` [Example 302, 2-Amino-4-[1-(3,4-dihydroxybenzoyl)-4-piperidinyl]-6-(4-methoxyphenylmethyl) pyrimidine] was tested. Which inhibition at 30 µM did it give?
**A.** 86%

**Q.** `Nc1nc(Cc2ccc(Br)cc2)cc(C2CCN(C(=O)c3ccc4c(c3)OCO4)CC2)n1` [Example 303, 2-Amino-4-(4-bromophenylmethyl)-6-[1-(3,4-methylenedioxybenzoyl)-4-piperidinyl]pyrimidine] was tested. Which inhibition at 30 µM did it give?
**A.** 92%

**Q.** Which inhibition at 30 µM does the source give for `Nc1nc(Cc2ccccc2)cc(C2CCN(C(=O)c3ccc4c(c3)OCO4)CC2)n1` [Example 304] here?
**A.** 83%

**Q.** `COc1cccc(Cc2cc(C3CCN(C(=O)c4ccc5c(c4)OCO5)CC3)nc(N)n2)c1` [Example 305] was tested. Which inhibition at 30 µM did it give?
**A.** 80%

**Q.** With `COc1cc(Cc2cc(C3CCN(C(=O)c4ccc5c(c4)OCO5)CC3)nc(N)n2)cc(OC)c1` [Example 308] as the compound, how does the inhibition at 30 µM read?
**A.** 87%

**Q.** Which inhibition at 30 µM does the source give for `Nc1nc(Cc2ccc(O)cc2)cc(C2CCN(C(=O)c3ccc4c(c3)OCO4)CC2)n1` [Example 315, 2-Amino-4-(4-hydroxyphenylmethyl)-6-[1-(3,4-methylenedioxybenzoyl)-4-piperidinyl] pyrimidine] here?
**A.** 86%
